Where two headings read alike, the source gives them in different places.
Tests used:
PDE4B = target: T1, PDE4B (Homo sapiens, UniProt Q07343); assay: PDE4B enzyme activity assay (PDE-Glo Phosphodiesterase Assay Kit); format: biochemical; details: for IC50 (PDE4D)/IC50 (PDE4B): selectivity ratio
T1 construct: purchased Enzo Life Sciences BML-SE522-0020
Experimental: (§1) For the previously synthesized compounds, the inhibitory activity of the compounds against PDE4B and against PDE4D was tested by using PDE-Glo Phosphodiesterase Assay Kit (promega, V1361). In short, in accordance with the instructions of the kit, a concentrated stock solution (10 mM) the compound to be tested was first prepared with DMSO solvent, and the concentrated stock solution was then diluted into 10× working solutions with a Reaction buffer provided in the kit. With the Reaction buffer, on ice, PDE4B enzyme (Enzo Life Sciences, BML-SE522-0020) was diluted to a concentration of 1 ng/μl to obtain a PDE4B enzyme working solution, and PDE4D enzyme (Enzo Life Sciences, BML-SE523-0020) was diluted to a concentration of 4 ng/μl to obtain a PDE4D enzyme working solution. 1.5 μl of the PDE4B working solution (or PDE4D working solution) and 1 μl of the compound working solution were added to wells of 384-well plate (Corning, CLS3707), and incubated with shaking at room temperature for 5 min, followed by adding 2.5 μl of cAMP (in Reaction buffer, 2 μM) per well, incubating with shaking at room temperature for 20 min. 2.5 μl/well of 1× Termination Buffer, and then 2.5 μl/well of 1× Detection Buffer were added, and further incubated with shaking at room temperature for 20 min. 10 μl/well of 1× Kinase-Glo was added, and the plate was incubated with shaking at room temperature for 10 min, and bioluminescence was measured with PheraStar instrument. The experimental results were plotted with GraphPad Prism software, and fitted to calculate IC50 of each compound.

[1] = tested on: LPS-induced secretion of TNFα in human PBMCs; assay: LPS-induced secretion of TNFα in human PBMCs; format: cell-based; details: Homo sapiens, PBMC, 24 h, LPS 10 ng/ml
Experimental: Extraction process of peripheral blood mononuclear cells (PBMCs): one unit of human peripheral blood concentrate (concentrated from 200 cc peripheral blood) was sucked and added with 0.9% saline until a total volume reached 120 ml, and mixed homogenously. 15 ml Lymphoprep™ was added into 50 ml centrifuge tube, and then 30 ml of diluted blood concentrate was carefully and slowly added thereto, allowing the diluted blood to be stacked on the layered solution and preventing the diluted blood from being mixed into the separated solutions or breaking the surface of the separated solution, wherein a ratio of Lymphoprep™ to the diluted blood was 1:2. The centrifuge tubes were balanced and placed in a horizontal centrifuge (eppendorf, 5810R), and centrifuged at 800 g and 20° C. for 20 min. The centrifuge tubes were carefully taken out. PBMCs were absorbed by directly inserting the Pasteur pipette deep into the buffy coat. The obtained PBMCs were gently pipetted with 3 times the volume of 0.9% normal saline or PBS (without calcium or magnesium ions) to mix homogenously. After that, the cells were centrifuged at 250 g and 20° C. for 10 min, the supernatant was removed to remove the platelets remaining in the cell suspension. The obtained cell pellet was resuspended in 20 ml of PBS, and counted using trypan blue.
Compound screening by using PBMCs: the PBMC suspension obtained above was centrifuged to remove PBS, then resuspended in complete medium (RPMI1640+10% FBS+1% P/S) and counted. 100 μL/well of the cells was seeded at 5×10^4/well. Each of the compounds to be screened was prepared as 4 times the final concentration, which was added to the cells at 50 μL/well. The compound was pre-incubated for 30 min in advance of being added to the cells. Meanwhile, control wells to which the compound was not added were provided. A final stimulation concentration of LPS was 10 ng/ml, and LPS was formulated as 4 times the final stimulation concentration, and added to the cells at 50 μL/well. Meanwhile, control wells, i.e., wells without LPS were provided. The cells were incubated for 24 h, and 10% of the supernatant was collected for detection. The obtained supernatant was detected using Invitrogen's Human TNF-α kit (REF: 88-7346-88).

PDE4D = target: T2, PDE4D (Homo sapiens, UniProt Q08499); assay: PDE4D enzyme activity assay (PDE-Glo Phosphodiesterase Assay Kit); format: biochemical
T2 construct: purchased Enzo Life Sciences BML-SE523-0020
Experimental: as §1

[2] = tested on: LPS-stimulated TNF-α release; assay: LPS-stimulated TNF-α release in mice; format: in vivo, Balb/c mice; details: Mus musculus, oral 50 mg/kg (positive control 100 mg/kg), 1 mg/kg LPS i.p.
Experimental: 18 Balb/c mice (6 to 8 weeks) were randomly assigned to a blank group, a model group, and an administration group, 6 mice in each group. A vehicle (blank group, model group) or 50 mg/kg compound (administration group, where the dose for the positive control group was 100 mg/kg) was orally administrated. 30 min after the oral administration, PBS (blank group) or 1 mg/kg LPS (model group and administration group) was injected intraperitoneally. 90 min or 120 min after the intraperitoneal injection, blood was collected from the hearts of the mice, and still stood at 2-8° C. for 4 hours, and centrifuged at 5000 rpm for 10 min to collect the serum. The serum was stored at −80° C. for testing.
The serum TNF-α level was tested using a mouse TNF-α detection kit (Mouse TNFa ELISA kit: Biolegend, Cat: 430904). The inhibitory activity of the compounds against the TNF-α release was calculated based on the serum TNF-α level.
Inhibitory activity of compound %={1−(TNFα concentration of administration group−TNFα concentration of blank group)/(TNFα concentration of model group−TNFα concentration of blank group)}×100%.

[3] = 2 h, blood 120 min after LPS, read-out: Inhibition rate (%) of LPS-stimulated TNF-α release, 120 min
[4] = 1.5 h, blood 90 min after LPS, read-out: Inhibition rate (%) of LPS-stimulated TNF-α release, 90 min

T2 sequence (Q08499 whole entry): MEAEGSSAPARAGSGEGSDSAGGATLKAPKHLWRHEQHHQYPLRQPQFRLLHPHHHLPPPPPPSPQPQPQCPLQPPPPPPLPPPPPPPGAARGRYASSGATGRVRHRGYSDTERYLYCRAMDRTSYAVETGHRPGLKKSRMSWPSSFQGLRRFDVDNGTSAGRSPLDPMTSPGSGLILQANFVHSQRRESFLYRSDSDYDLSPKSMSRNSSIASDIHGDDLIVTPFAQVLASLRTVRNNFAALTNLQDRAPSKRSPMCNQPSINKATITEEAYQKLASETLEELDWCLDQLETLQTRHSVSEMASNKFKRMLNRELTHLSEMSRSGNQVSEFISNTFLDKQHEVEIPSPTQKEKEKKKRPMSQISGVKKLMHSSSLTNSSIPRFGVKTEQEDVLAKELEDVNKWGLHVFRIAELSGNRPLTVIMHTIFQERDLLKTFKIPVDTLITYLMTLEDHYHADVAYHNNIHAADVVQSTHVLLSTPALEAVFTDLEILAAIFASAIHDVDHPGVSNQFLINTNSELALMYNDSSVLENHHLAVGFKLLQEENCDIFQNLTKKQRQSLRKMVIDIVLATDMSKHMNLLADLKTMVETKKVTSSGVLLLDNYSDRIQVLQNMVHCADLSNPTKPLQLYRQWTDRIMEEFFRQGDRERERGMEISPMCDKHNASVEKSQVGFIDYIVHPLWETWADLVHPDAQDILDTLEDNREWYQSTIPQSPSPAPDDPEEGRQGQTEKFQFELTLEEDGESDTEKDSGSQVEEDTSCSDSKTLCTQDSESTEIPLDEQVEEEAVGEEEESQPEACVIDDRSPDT
T1 sequence (Q07343 whole entry): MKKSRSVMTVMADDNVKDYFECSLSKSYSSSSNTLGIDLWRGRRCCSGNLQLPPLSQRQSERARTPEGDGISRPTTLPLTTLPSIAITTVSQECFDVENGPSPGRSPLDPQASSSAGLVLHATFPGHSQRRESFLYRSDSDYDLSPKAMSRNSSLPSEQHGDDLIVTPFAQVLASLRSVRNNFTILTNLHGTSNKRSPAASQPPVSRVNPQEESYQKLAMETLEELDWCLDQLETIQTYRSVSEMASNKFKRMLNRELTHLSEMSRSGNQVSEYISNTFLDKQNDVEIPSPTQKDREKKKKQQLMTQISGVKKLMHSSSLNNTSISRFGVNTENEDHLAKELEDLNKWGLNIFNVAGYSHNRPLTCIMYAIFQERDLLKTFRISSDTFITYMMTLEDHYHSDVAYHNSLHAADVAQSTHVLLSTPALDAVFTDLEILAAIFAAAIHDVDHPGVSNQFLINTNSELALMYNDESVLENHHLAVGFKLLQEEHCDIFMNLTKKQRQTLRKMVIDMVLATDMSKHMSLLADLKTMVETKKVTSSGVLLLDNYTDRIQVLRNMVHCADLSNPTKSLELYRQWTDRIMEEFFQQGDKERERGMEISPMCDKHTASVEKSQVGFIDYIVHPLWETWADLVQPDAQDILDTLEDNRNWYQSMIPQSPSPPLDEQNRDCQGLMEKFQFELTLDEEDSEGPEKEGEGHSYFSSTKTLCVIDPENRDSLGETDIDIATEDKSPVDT

IC50 (PDE4B) [nM]	IC50 (PDE4D)/IC50 (PDE4B) (PDE4B)	IC50 (PDE4D) [nM]	Compound	IC50 [1] [nM]	inhibition in vivo at 50 mg/kg [2, 3] [%]	inhibition in vivo at 50 mg/kg [2, 4] [%]
1.37	0.98	1.34	COc1ccc([C@@H]2CN(C(=O)[C@@H](O)CO)C[C@@]2(C)[C@@H](C)O)cc1OC1CN(c2ncc(C)cc2C#N)C1 [Compound 006, 2-(3-(5-((3S,4S)-1-((S)-2,3-dihydroxypropanoyl)-4-((R)-1-hydroxyethyl)-4-methylpyrrolidin-3-yl)-2-methoxyphenoxy)azetidin-1-yl)-5-methylnicotinonitrile]	2.52	–	–
0.78	5.99	4.67	COc1ccc([C@@H]2CN(C(=O)[C@@H](O)CO)C[C@@]2(C)[C@@H](C)O)cc1OC1CN(c2ncc(Cl)cc2F)C1 [Compound 009, (S)-1-((3S,4S)-4-(3-((1-(5-chloro-3-fluoropyridin-2-yl)azetidin-3-yl)oxy)-4-methoxyphenyl)-3-((R)-1-hydroxyethyl)-3-methylpyrrolidin-1-yl)-2,3-dihydroxypropan-1-one]	7.57	47.6	–
2.09	0.27	0.56	COc1ccc([C@@H]2CN(C(=O)[C@@H](O)CO)C[C@@]2(C)[C@@H](C)O)cc1OC1CN(c2cc(C)c(C#N)cn2)C1 [Compound 012, 6-(3-(5-((3S,4S)-1-((S)-2,3-dihydroxypropanoyl)-4-((R)-1-hydroxyethyl)-4-methylpyrrolidin-3-yl)-2-methoxyphenoxy)azetidin-1-yl)-4-methylnicotinonitrile]	2.52	–	–
6.65	0.91	6.02	COc1ccc([C@@H]2CN(C(=O)[C@@H](O)CO)C[C@@]2(C)[C@@H](C)O)cc1OC1CN(c2ncc(F)cc2Cl)C1 [Compound 014, (S)-1-((3S,4S)-4-(3-((1-(3-chloro-5-fluoropyridin-2-yl)azetidin-3-yl)oxy)-4-methoxyphenyl)-3-((R)-1-hydroxyethyl)-3-methylpyrrolidin-1-yl)-2,3-dihydroxypropan-1-one]	15.1	–	–
0.68	1.28	0.87	COc1ccc(N2CC(Oc3cc([C@@H]4CN(C(=O)[C@@H](O)CO)C[C@@]4(C)[C@@H](C)O)ccc3OC)C2)nc1 [Compound 015, (S)-2,3-dihydroxy-1-((3S,4S)-3-((R)-1-hydroxyethyl)-4-(4-methoxy-3-((1-(5-methoxypyridin-2-yl)azetidin-3-yl)oxy)phenyl)-3-methylpyrrolidin-1-yl)propan-1-one]	3.34	–	–
4.15	3.59	14.9	COc1ccc([C@@H]2CN(C(=O)[C@@H](O)CO)C[C@@]2(C)[C@@H](C)O)cc1OC1CN(c2ncc(C)cc2C)C1 [Compound 021, (S)-1-((3S,4S)-4-(3-((1-(3,5-dimethylpyridin-2-yl)azetidin-3-yl)oxy)-4-methoxyphenyl)-3-((R)-1-hydroxyethyl)-3-methylpyrrolidin-1-yl)-2,3-dihydroxypropan-1-one]	14.1	–	–
0.88	2.45	2.16	COc1ccc([C@@H]2CN(C(=O)[C@@H](O)CO)C[C@@]2(C)[C@@H](C)O)cc1OC1CN(c2cc(C)c(F)cn2)C1 [Compound 025, (S)-1-((3S,4S)-4-(3-((1-(5-fluoro-4-methylpyridin-2-yl)azetidin-3-yl)oxy)-4-methoxyphenyl)-3-((R)-1-hydroxyethyl)-3-methylpyrrolidin-1-yl)-2,3-dihydroxypropan-1-one]	3.26	–	–
2.22	1.39	3.08	COc1ccc([C@@H]2CN(C(=O)[C@@H](O)CO)C[C@@]2(C)[C@@H](C)O)cc1OC1CN(c2ccc(OC(C)C)cn2)C1 [Compound 028, (S)-2,3-dihydroxy-1-((3S,4S)-3-((R)-1-hydroxyethyl)-4-(3-((1-(5-isopropoxypyridin-2-yl)azetidin-3-yl)oxy)-4-methoxyphenyl)-3-methylpyrrolidin-1-yl)propan-1-one]	2.94	–	–
0.33	9.85	3.25	COc1ccc([C@@H]2CN(C(=O)[C@@H](O)CO)C[C@@]2(C)[C@@H](C)O)cc1OC1CN(c2ccc(C(C)C)cn2)C1 [Compound 032, (S)-2,3-dihydroxy-1-((3S,4S)-3-((R)-1-hydroxyethyl)-4-(3-((1-(5-isopropylpyridin-2-yl)azetidin-3-yl)oxy)-4-methoxyphenyl)-3-methylpyrrolidin-1-yl)propan-1-one]	0.26	84	75.8
0.22	12.8	2.81	COc1ccc([C@@H]2CN(C(=O)[C@@H](O)CO)C[C@@]2(C)[C@@H](C)O)cc1OC1CN(c2ccc(CC(F)(F)F)cn2)C1 [Compound 033, (S)-2,3-dihydroxy-1-((3S,4S)-3-((R)-1-hydroxyethyl)-4-(4-methoxy-3-((1-(5-(2,2,2-trifluoroethyl)pyridin-2-yl)azetidin-3-yl)oxy)phenyl)-3-methylpyrrolidin-1-yl)propan-1-one]	0.53	75.9	70.3
0.25	11.8	2.96	COc1ccc([C@@H]2CN(C(=O)[C@@H](O)CO)C[C@@]2(C)[C@@H](C)O)cc1OC1CN(c2ccc(C3CC3)cn2)C1 [Compound 034, (S)-1-((3S,4S)-4-(3-((1-(5-cyclopropylpyridin-2-yl)azetidin-3-yl)oxy)-4-methoxyphenyl)-3-((R)-1-hydroxyethyl)-3-methylpyrrolidin-1-yl)-2,3-dihydroxypropan-1-one]	0.32	85.6	76.4
